Results from patent US20140212437A1, “METHODS AND COMPOSITIONS FOR TREATING ATRIAL FIBRILLATION” (THE REGENTS OF THE UNIVERSITY OF MICHIGAN, priority 2013, published 2014).
Entries after “also recorded” stand apart in the source; their conditions may differ.

Columns and labels:
FOXO1 = assay: Western blot of FOXO1 phosphorylation; format: cell-based, rat
Description: (§1) Cell Treatment: Isolated adult rat cardiac myocytes were treated with FCM or TGF-β1 (R and D systems, Minneapolis, Minn.) for 3 days in serum free medium. For PI3K pathway inhibition cells were pretreated (30 min) with 10 μM […] (Cayman Chemicals, Ann Arbor) before the treatment with TGF-β1.
Western blotting: Control and treated cardiac myocytes were washed in cold PBS, lysed directly in the modified loading buffer (25 mmol/l Tris.HCl; 150 mmol/l NaCl; 1 mmol/l EDTA; 4 mmol/l NaF; 2 mmol/l Sodium ortho-vanadate; 1% Triton X-100, protease inhibitor, 5% glycerol, 1% SDS, 0.05% bromophenol blue. 5% β mercaptoethanol) and sonicated. The lysate (20 μl) were then subjected SDS-PAGE as described earlier. The blots were incubated with rabbit pFOXO1 antibody, 1:500 (Cell Signaling) or rabbit GAPDH antibody, 1:5000 (Sigma-Aldrich, St. Louis, Mo.).

SCN5A = assay: mRNA analysis by qPCR, SCN5A; format: cell-based, rat
Description: as §1
(§2) mRNA analysis by quantitative PCR (qPCR): Cardiac myocytes were washed with PBS and lysed with lysis buffer. RNA was isolated from the myocardial tissue using RNAeasy kit from Qiagen (Qiagen, Valencia, Calif.) according to the manufacturer's instructions. Isolated RNA from these samples was treated with DNase for 15 min at room temperature (Qiagen, Valencia. CA). 100 ng of DNA-free total poly-A tail RNA (mRNA) was first subjected to synthesis of cDNA using Oligo dT primers applying SuperScript III First-Strand Synthesis System from Invitrogen (Invitrogen, Carlsbad, Calif.) according to the manufacturer's instructions. cDNA from 20 ng of total RNA was then subjected to real-time RT-PCR using predesigned taqman probe primers specific for rat Scn5a (Rn00565502), Kcnip2 (Kchip2; Rn01411451) and kcnd2 (Rn01456260) (Applied Biosystems, California). No-template controls and no-RT controls were run during each experiment to detect any RNA and/or DNA contamination. Results are expressed as fold expression of gene of interest normalized to GAPDH expression in the sample.

[1] = test system: adult sheep atrial fibroblasts; assay: Wound healing (in vitro migration) assay; format: cell-based; conditions: Gal-3 vs untreated cells, days 0-2
Description: (§3) Wound healing experiments were performed to investigate if exogenous Gal-3 can increase myofibroblast migration in vitro (FIG. 3). Adult sheep atrial fibroblasts were cultured in 96-well plates until confluent. Before serum starvation, cells were stained with cell tracker dye and DAPI. A wound was created by scraping a semi-confluent monolayer of cells with a 1 ml pipette tip. Thereafter, cells underwent serum starvation in DMEM with […] for 6 hrs. Comparisons were made between untreated and Gal-3 treated (1 μg/ml or 10 μg ml) cells. The wound was imaged at 4 different locations at 3 different time points (days 0, 1 and 2). The size of the wound was quantified using the NIS element program by Nikon. […] Next, to investigate the effects of Gal-3 on myofibroblast proliferation, adult sheep atrial fibroblasts were treated with recombinant human Gal-3 (EMD chemicals, USA) for 24 hours in the presence of SFM. FM was included as a positive control. Cell proliferation was measured using cell proliferation reagent WST (Roche Diagnostics, USA). […] Such concentrations are in the same range used previously (Sharma et al., Circulation. 2004; 110:3121-3128) to investigate Gal-3 induced fibroblast proliferation in the cardiomyopathic heart. […] In addition, the results strongly support the therapeutic value of Gal-3 inhibitors.

[2] = test system: adult sheep atrial fibroblasts; assay: Cell proliferation, WST reagent; format: cell-based; conditions: 1-30 μg/ml, 24 hours, SFM
Description: as §3

[3] = test system: adult rat ventricular myocytes; assay: Action potential recording, current clamp; format: cell-based
Description: as §1
Action potentials were recorded from individual myocytes using the current clamp mode of the MultiClamp 700B amplifier after gigaseal formation and patch break. Stimulus pulses (1-2 ms duration) were generated using a World Precision Instruments DS8000 stimulator (Sarasota, Fla.). The bath solution contained (in mM): NaCl: 148, KCl: 5.4, MgCl2: 1, CaCl2 1.8, NaH2PO4: 0.4, HEPES: 15, Glucose: 5.5, pH 7.4 with NaOH. The pipette solution contained (in mM), KCl: 20, K-aspartate: 90, KH2PO4: 10, EDTA: 5.0. K2ATP: 1.9, HEPES: 5.0 and Mg2+ 7.9; pH 7.2 (KOH)

[4] = test system: adult rat ventricular myocytes; assay: Whole-cell patch clamp, transient outward potassium current (Ito); format: cell-based; conditions: 72-hr
Description: as §1
The extracellular solution for transient outward potassium current (Ito) contained (in mM): 136 NaCl, 4 KCl, 1.8 CaCl2, 2 MgCl2, 10 HEPES, 0.03 tetrodotoxin. 0.01 nifedipine, and 14 glucose, pH 7.35. The pipette solution contained (in mM): 135 KCl, 1 MgCl2, 10 EGTA, 10 HEPES, 5 glucose, pH 7.2. Voltage-gated outward K+ currents were evoked during 5-s depolarizing voltage steps to potentials between −40 and +60 mV from a holding potential of −70 mV; voltage steps were presented in 10 mV increments at 15 s intervals
(§4) In all experiments, cells were exposed to one of the following for 72 hrs prior to the experiment: control medium, FCM or TGF-β1.

[5] = test system: adult rat ventricular myocytes; assay: Whole-cell patch clamp, sodium current (INa); format: cell-based
Description: as §1
Patch-clamp experiments: Whole-cell ionic currents were recorded from adult rat ventricular myocytes. All recordings were conducted at room temperature. Sodium current recordings were conducted in a low-sodium extracellular solution containing (in mM): NaCl, 10; MgCl2, 1; CaCl2, 1.8; CdCl2, 0.1; HEPES, 20; CsCl, 127.5; glucose, 11. The pipette solution contained (in mM): NaCl, 5; CsF, 135; EGTA, 10; MgATP, 5; HEPES, 5. To characterize the voltage dependence of the peak INa, single cells were held at −120 mV, and 200 msec voltage steps were applied from −90 to +30 mV in 5 mV increments. The interval between voltage steps was 3 sec. Voltage-dependence of inactivation was assessed by holding cells at various potentials from −160 to −40 mV followed by a 30 msec test pulse to −40 mV to elicit INa. Recovery from inactivation was studied by holding cells at −120 mV and applying two 20-msec test pulses (S1, S2) to −40 mV separated by increments of 2 msec to a maximum S1-S2 interval of 80 msec. The S1-S1 interval was kept constant at 3 sec.
as §4

KCNIP2 = assay: mRNA analysis by qPCR, KCNIP2; format: cell-based, rat; conditions: 1 ng/ml, 72 hr
Description: as §2

KCND2 = assay: mRNA analysis by qPCR, KCND2; format: cell-based, rat; conditions: 1 ng/ml, 72 hr
Description: as §2

## O=c1cc(N2CCOCC2)oc2c(-c3ccccc3)cccc12 [LY 29004, reference compound]
FOXO1; pretreated 30 min with 10 μM
  phosphorylation of FOXO1 in TGF-β1 treated cells: inhibited
SCN5A; pretreated 30 min with 10 μM
  TGF-β1-induced increase in SCN5A transcription: failed to show increased SCN5A transcription

## Gal-3: recombinant human Gal-3 (EMD chemicals, USA) added exogenously to sheep atrial fibroblasts
[1]
  rate of migration / wound healing: significantly increased the rate of migration and promoted wound healing; also recorded: increases the rate of wound healing
[2]
  number of adult sheep atrial myofibroblasts (proliferation): increased the number of adult sheep atrial myofibroblasts in a concentration-dependent manner; also recorded: increases proliferation

## TGF-β1
[3]; 10 ng/ml, 72 hours
  action potential duration (APD): basic cycle length (BCL) dependent action potential duration (APD) prolongation
[3]; 10 ng/ml, BCL of 1000 ms
  APD30 relative to control: > 3.5 times
[3]; 10 ng/ml, BCL of 1000 ms, control 8.1±3.6
  APD30: 29.1 ± 5.6 ms
[3]; 50 ng/ml
  action potential duration / early afterdepolarizations: APD was so prolonged that some cells early afterdepolarizations (EADs)
FOXO1; 1 ng/ml
  increase in phosphorylated FOXO1 compared to control: 67%
FOXO1; 1 ng/ml, phosphorylation seen at 5 min
  exposure time of peak FOXO1 phosphorylation: 15 min
[4]; 1 ng/ml
  peak Ito: significantly reduced the peak Ito but to a much modest level
[4]; 10 ng/ml, at 60 mV
  Ito current density, % of control levels: 57%
[4]; 10 ng/ml, at +20 mV
  reduction of Ito current density: 42%
[4]; 10 ng/ml, control 22.2±1.2
  Ito current density at 60 mV: 12.6±0.98
[4]; 10 ng/ml, voltages between +20 mV and +60 mV
  Ito compared to control: significantly lower than control
[5]; 1 ng/ml, 72 hours, also seen at 10 ng/ml
  maximum INa increase: about 40%
[5]; 1 ng/ml, at −40V
  more inward current compared to control medium: about 40%
[5]; 1 ng/ml, step voltages between −60 mV and −30 mV, p<0.05-0.01
  peak INa density compared to control: significantly increased the peak INa density
[5]; 72 hours, 0.001-1.0 ng/ml
  EC50 for peak inward INa density: 0.007 ng/mL
[5]; 72 hr treatment or viral overexpression
  voltage dependence of activation (m∞) and inactivation (h∞): neither the m∞ nor the h∞ curve was modified
KCNIP2
  reduction of mRNA levels of KCNIP2: 77%
KCND2
  decrease of KCND2 expression with respect to control: 50.6%
SCN5A; 1 ng/ml, 72 hr
  SCN5A transcript levels, increase: 1.73±0.26 fold
